Read-outs that look alike come from different tables or passages of the source.
Molecular target: T1, hM5 (Homo sapiens, UniProt P08912)
T1 construct: expressed in transfected cells
T1 sequence (P08912 1-532): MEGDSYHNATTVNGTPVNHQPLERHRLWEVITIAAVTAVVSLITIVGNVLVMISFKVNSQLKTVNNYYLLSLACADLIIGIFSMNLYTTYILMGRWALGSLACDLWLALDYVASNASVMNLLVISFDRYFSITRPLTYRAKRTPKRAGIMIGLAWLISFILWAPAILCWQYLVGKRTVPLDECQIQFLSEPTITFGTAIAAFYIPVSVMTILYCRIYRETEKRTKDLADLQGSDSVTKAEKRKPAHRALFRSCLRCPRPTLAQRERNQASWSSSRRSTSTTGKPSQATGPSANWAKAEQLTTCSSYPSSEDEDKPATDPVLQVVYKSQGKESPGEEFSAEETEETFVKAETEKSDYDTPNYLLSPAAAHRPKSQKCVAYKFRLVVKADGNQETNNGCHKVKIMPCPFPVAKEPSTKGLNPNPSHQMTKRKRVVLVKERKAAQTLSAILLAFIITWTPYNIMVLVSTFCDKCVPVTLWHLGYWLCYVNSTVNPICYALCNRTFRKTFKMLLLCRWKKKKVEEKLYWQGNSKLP
Experiment: Calcium mobilization concentration-response (IC50 vs EC80 acetylcholine), CHO hM5
Type: cell-based
Settings: CELL LINE hM5, read-out: IC50
Experimental: Initial, single point (10 μM) compound characterization was performed in stable Chinese Hamster Ovary (CHO) cell lines constitutively expressing human M5 receptors. These were plated at 15,000 cells per 20 μL per well in Greiner 384-well black-walled, TC-treated, clear-bottomed plates (Fisher) in Ham's F12 medium supplemented with 10% FBS and 20 mM HEPES. Cells were incubated overnight at 37° C. under 5% CO2. The following day, medium was exchanged with assay buffer (Hank's Balanced Salt Solution supplemented with 20 mM HEPES and 2.5 mM Probenecid, pH 7.4) leaving 20 μL of assay buffer in each well. […] The cells were then incubated 50 minutes at 37° C. under 5% CO2. The assay buffer plus dye was then exchanged with fresh assay buffer leaving a volume of 20 μL in each well. Test compounds were diluted into assay buffer to a 2X (20 μM) concentration in 0.2% dimethylsulfoxide (DMSO) in columns 3-22 with matching DMSO concentration in columns 1, 2, 23, and […]; compounds were added to the assay for a final concentration of 10 μM and a final DMSO concentration of 0.1%.
Either an FDSS (Hamamatsu) or Panoptic (WaveFront Biosciences) kinetic imaging plate reader was used for assay execution and measurement of calcium flux. After establishing baseline fluorescence, test compounds (20 μL) were added to the cells using the reader's integrated pipettor and allowed to equilibrate for 140 seconds before addition of the […] concentration of acetylcholine (10 μL) along with vehicle in selected DMSO-only wells in the outer two columns . […] The raw fluorescence data from each well was normalized to the corresponding initial fluorescence reading (static ratio). The maximum fluorescence value following each addition was determined and the minimum value within that same timeframe was subtracted for each well then normalized to the average of the ECffiax maximum-minimum response, providing a % AChmax value for each addition for each well. The single point values represent mean values determined within the ECsu addition timeframe obtained from at least three independent determinations performed in triplicate or greater (error bars represent +/−SEM) unless otherwise specified.
CHO cells stably expressing hM1, hM2/Gqi5, hM3, hM4/Gqi5, hM5, rM1/Gqi5, rM3, rM4/Gqi5, or rM5 were plated in the manner described above. […] FDSS protocols were carried out as described above; the static ratio was calculated and the minimum response subtracted from the maximum response within the timeframe of each addition. This max-min response was then normalized to the maximum acetylcholine response. Calculation of IC50 was performed using the percent maximum acetylcholine response for the EC80 addition through the Vortex and Studies modules of the Dotmatics data management software. Results are stored in the Dotrnatics database and an audit trail of any changes to their analysis is generated. Data shown represent mean values obtained from at least three independent determinations performed in triplicate or greater (error bars represent±SEM) unless otherwise specified.

[1] = calcium mobilization, EC80 acetylcholine addition

| SMILES | IC50 [1] | IC50 (vs EC80 acetylcholine) |
| --- | --- | --- |
| Cc1cc2nccn2nc1C1CCN(S(=O)(=O)c2ccc3c(c2)CCCO3)CC1 [Compound 43, 6-(1-(chroman-6-ylsulfonyl)piperidin-4-yl)-7-methylimidazo[1,2-b]pyridazine] | 3600 nM |  |
| Cc1c(C2CCN(S(=O)(=O)c3cnn(C)c3C(F)F)CC2)cn2ncnc2c1F [Compound 307, 6-(1-((5-(Difluoromethyl)-1-methyl-1H-pyrazol-4-yl)sulfonyl)piperidin-4-yl)-8-fluoro-7-methyl-[1,2,4]triazolo[1,5-a]pyridine] | 17 nM |  |
| CCc1cc2ncnn2cc1C1CCN(S(=O)(=O)c2cnn3c2CCCC3)CC1 [Compound 302, 7-ethyl-6-(1-((4,5,6,7-tetrahydropyrazolo[1,5-a]pyridin-3-yl)sulfonyl)piperidin-4-yl)-[1,2,4]triazolo[1,5-a]pyridine] | 54 nM |  |
| Cc1nc(C)c(S(=O)(=O)N2CCC(c3cn4ncnc4cc3C(F)(F)F)CC2)s1 [Compound 279, 2,4-dimethyl-5-((4-(7-(trifluoromethyl)-[1,2,4]triazolo[1,5-a]pyridin-6-yl)piperidin-1-yl)sulfonyl)thiazole] | > 10000 nM |  |
| Cc1sc(C#N)nc1C1=CCN(S(=O)(=O)c2cnn(C)c2C)CC1 [Compound 204, 4-(1-((1,5-dimethyl-1H-pyrazol-4-yl)sulfonyl)-1,2,3,6-tetrahydropyridin-4-yl)-5-methylthiazole-2-carbonitrile] | > 10000 nM |  |
| Cc1cc2ncnn2cc1C1CCN(S(=O)(=O)c2scnc2C)CC1 [Compound 601, 4-methyl-5-((4-(7-methyl-[1,2,4]triazolo[1,5-a]pyridin-6-yl)piperidin-1-yl)sulfonyl)thiazole] |  | 5240 nM |
| Cc1ncc(S(=O)(=O)N2CCC(c3nn4ncnc4cc3C)CC2)o1 [Compound 488, 2-methyl-5-((4-(7-methyl-[1,2,4]triazolo[1,5-b]pyridazin-6-yl)piperidin-1-yl)sulfonyl)oxazole] |  | 6350 nM |
| Cc1ccc(S(=O)(=O)N2CCC(c3cn4ccnc4cc3C)CC2)cn1 [Compound 69, 7-methyl-6-(1-((6-methylpyridin-3-yl)sulfonyl)piperidin-4-yl)imidazo[1,2-a]pyridine] | > 10000 nM |  |
| O=S(=O)(c1cnc(Cl)s1)N1CCC(c2cn3ncnc3cc2C(F)F)CC1 [Compound 516, 2-chloro-5-((4-(7-(difluoromethyl)-[1,2,4]triazolo[1,5-a]pyridin-6-yl)piperidin-1-yl)sulfonyl)thiazole] |  | 1700 nM |
| Cc1cc2ncnn2cc1C1CCN(S(=O)(=O)c2cccc3nn(C)cc23)CC1 [Compound 290, 7-methyl-6-(1-((2-methyl-2H-indazol-4-yl)sulfonyl)piperidin-4-yl)-[1,2,4]triazolo[1,5-a]pyridine] | 1200 nM |  |
| Cc1nc2n(c1C1CCN(S(=O)(=O)c3cnn(C)c3Cl)CC1)CCCC2 [Compound 463, 3-(1-((5-Chloro-1-methyl-1H-pyrazol-4-yl)sulfonyl)piperidin-4-yl)-2-methyl-5,6,7,8-tetrahydroimidazo[1,2-a]pyridine] |  | 250 nM |
| Cc1cc2ccnn2cc1C1CCN(S(=O)(=O)c2cnn(C)c2Cl)CC1 [Compound 470, 6-(1-((5-chloro-1-methyl-1H-pyrazol-4-yl)sulfonyl)piperidin-4-yl)-5-methylpyrazolo[1,5-a]pyridine] |  | 94 nM |
| [2H]C1([2H])CC(c2cn3ncnc3cc2F)CC([2H])([2H])N1S(=O)(=O)c1cnc(C)o1 [Compound 567, 5-((4-(7-fluoro-[1,2,4]triazolo[1,5-a]pyridin-6-yl)piperidin-1-yl-2,2,6,6-d4)sulfonyl)-2-methyloxazole] |  | 1390 nM |
| Cc1cc2ncnn2cc1C1CCN(S(=O)(=O)c2cnc3ccccn23)CC1 [Compound 323, 6-(1-(imidazo[1,2-a]pyridin-3-ylsulfonyl)piperidin-4-yl)-7-methyl-[1,2,4]triazolo[1,5-a]pyridine] | 16 nM |  |
| Cc1cc2nccn2cc1C1CCN(S(=O)(=O)c2cn(C)nc2C)CC1 [Compound 71, 6-(1-((1,3-dimethyl-1H-pyrazol-4-yl)sulfonyl)piperidin-4-yl)-7-methylimidazo[1,2-a]pyridine] | > 10000 nM |  |
| Cc1ncc(S(=O)(=O)N2CC=C(c3cn4ncnc4cc3Cl)CC2)n1C [Compound 224, 7-chloro-6-(1-((1,2-dimethyl-1H-imidazol-5-yl)sulfonyl)-1,2,3,6-tetrahydropyridin-4-yl)-[1,2,4]triazolo[1,5-a]pyridine] | 12 nM |  |
| Cc1cc2ncccc2cc1C1CCN(S(=O)(=O)c2cnc3ccccn23)CC1 [Compound 452, 6-(1-(imidazo[1,2-a]pyridin-3-ylsulfonyl)piperidin-4-yl)-7-methylquinoline] |  | 445 nM |

Other lines, results leading:

| IC50 [1] | IC50 (vs EC80 acetylcholine) | SMILES |
| --- | --- | --- |
|  | 784 nM | [2H]C1([2H])CC(c2cn3ncnc3cc2C(F)F)CC([2H])([2H])N1S(=O)(=O)c1cn(C)nn1 [Compound 595, 7-(difluoromethyl)-6-(1-((1-methyl-1H-1,2,3-triazol-4-yl)sulfonyl)piperidin-4-yl-2,2,6,6-d4)-[1,2,4]triazolo[1,5-a]pyridine] |
|  | > 10000 nM | COC1(c2cn3ncnc3cc2C)CCN(S(=O)(=O)c2cnn3c2OCCC3)CC1 [Compound 416, 3-((4-methoxy-4-(7-methyl-[1,2,4]triazolo[1,5-a]pyridin-6-yl)piperidin-1-yl)sulfonyl)-6,7-dihydro-5H-pyrazolo[5,1-b][1,3]oxazine] |
|  | 9 nM | Cc1c(C2CCN(S(=O)(=O)c3cnc4sccn34)CC2)cn2ncnc2c1F [Compound 533, 5-((4-(8-fluoro-7-methyl-[1,2,4]triazolo[1,5-a]pyridin-6-yl)piperidin-1-yl)sulfonyl)imidazo[2,1-b]thiazole] |
| > 10000 nM |  | Cc1cn2cc(C3CCN(S(=O)(=O)c4ccc5c(c4)CCO5)CC3)ncc2n1 [Compound 18, 6-(1-((2,3-dihydrobenzofuran-5-yl)sulfonyl)piperidin-4-yl)-2-methylimidazo[1,2-a]pyrazine] |
| 1300 nM |  | Cc1cc2ncnn2cc1C1CCN(S(=O)(=O)c2cn(C)cn2)CC1 [Compound 128, 7-methyl-6-(1-((1-methyl-1H-imidazol-4-yl)sulfonyl)piperidin-4-yl)-[1,2,4]triazolo[1,5-a]pyridine] |
| > 10000 nM |  | O=S(=O)(c1ccc2c(c1)CCO2)N1CCC(c2nc3cc(F)ccc3[nH]2)CC1 [Compound 5, 2-(1-((2,3-dihydrobenzofuran-5-yl)sulfonyl)piperidin-4-yl)-5-fluoro-in-benzo[d]imidazole] |
| 13 nM |  | Cc1c(S(=O)(=O)N2CC=C(c3cn4ncnc4c(F)c3Cl)CC2)cnn1C [Compound 381, 7-chloro-6-(1-((1,5-dimethyl-1H-pyrazol-4-yl)sulfonyl)-1,2,3,6-tetrahydropyridin-4-yl)-8-fluoro-[1,2,4]triazolo[1,5-a]pyridine] |
| > 10000 nM |  | Cc1cc2ncnn2nc1C1CCN(S(=O)(=O)c2ccc3c(c2)OCCO3)CC1 [Compound 184, 6-(1-((2,3-dihydrobenzo[b][1,4]dioxin-6-yl)sulfonyl)piperidin-4-yl)-7-methyl-[1,2,4]triazolo[1,5-b]pyridazine] |
|  | 889 nM | CCc1cc2ncnn2cc1C1CCN(S(=O)(=O)c2cnc(C)o2)CC1 [Compound 496, 5-((4-(7-ethyl-[1,2,4]triazolo[1,5-a]pyridin-6-yl)piperidin-1-yl)sulfonyl)-2-methyloxazole] |
| 689 nM |  | Cc1cc2ncnn2nc1C1CCN(S(=O)(=O)c2cnc(C)n2C)CC1 [Compound 216, 6-(1-((1,2-dimethyl-1H-imidazol-5-yl)sulfonyl)piperidin-4-yl)-7-methyl-[1,2,4]triazolo[1,5-b]pyridazine] |

— US20230183237A1, “COMPETITIVE AND NONCOMPETITIVE INHIBITORS OF THE MUSCARINIC ACETYLCHOLINE RECEPTOR M5” (Vanderbilt University, priority 2020, published 2023)
